This is an account of results in article PMC3088504 (Bioorganic & medicinal chemistry, 2009).

In this test the target is H1 receptor (Homo sapiens, UniProt P35367). In words: H1 competitive radioligand binding assay. To be noted: H1 versus 5-HT2A, from Ki values.

Structures are written as SMILES.

Chain of H1 receptor (P35367 whole entry): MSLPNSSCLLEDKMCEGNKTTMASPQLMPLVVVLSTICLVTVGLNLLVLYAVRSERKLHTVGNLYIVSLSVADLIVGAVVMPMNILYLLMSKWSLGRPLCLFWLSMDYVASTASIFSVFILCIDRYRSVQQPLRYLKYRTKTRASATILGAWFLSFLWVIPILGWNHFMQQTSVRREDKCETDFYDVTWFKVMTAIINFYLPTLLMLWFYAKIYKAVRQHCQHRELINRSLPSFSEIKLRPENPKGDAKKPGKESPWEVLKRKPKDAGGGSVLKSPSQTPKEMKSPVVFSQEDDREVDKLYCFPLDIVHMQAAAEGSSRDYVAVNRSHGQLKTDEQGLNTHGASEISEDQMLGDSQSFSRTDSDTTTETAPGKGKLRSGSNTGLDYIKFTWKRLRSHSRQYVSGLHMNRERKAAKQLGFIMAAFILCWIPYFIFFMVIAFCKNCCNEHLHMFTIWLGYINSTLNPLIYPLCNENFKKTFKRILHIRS

Take `CN(C)CCCC1c2ccccc2Cc2ccccc21` [Compound 3c]: the “selectivity for the H1 receptor” value is 44 fold.
